Results reported in US10072034B2, “Kinase inhibitors” (Respivert Limited, priority 2016, dated 2018).

Experiments:
[1] = Microcentrifuge dissolution test 2): direct dosing into intestinal media containing simulated bile-salt micelles (IB-SIF); assay type: physicochemical; conditions: for Concentration, IB Timepoint 0 min / Concentration, IB Timepoint 4 min / Concentration, IB Timepoint 10 min / Concentration, IB Timepoint 20 min / Concentration, IB Timepoint 40 min / Concentration, IB Timepoint 90 min / Concentration, IB Timepoint 1,200 min / Additional concentration, UCF Timepoint 90 min: IB-SIF; for Concentration, IB Timepoint 0 min: pH 6.5, 0 min; for Concentration, IB Timepoint 4 min: pH 6.5, 4 min; for Concentration, IB Timepoint 10 min: pH 6.5, 10 min; for Concentration, IB Timepoint 20 min: pH 6.5, 20 min; for Concentration, IB Timepoint 40 min: pH 6.5, 40 min; for Concentration, IB Timepoint 90 min: pH 6.5, 90 min; for Concentration, IB Timepoint 1,200 min: pH 6.5, 1,200 min; for Additional concentration, UCF Timepoint 90 min / Additional concentration, UCF Timepoint 1,200 min: after ultracentrifugation (free drug + drug in micelles); for Additional concentration, UCF Timepoint 1,200 min: IB-SIF, 1,200 min
Protocol: In vitro non-sink dissolution performance of the Compound of Example 3 was evaluated alongside Reference Compounds A and B employing microcentrifuge dissolution tests in which samples were either 1) transferred from intestinal buffer (IB) to colonic buffer (CB) or 2) dosed directly into intestinal media containing simulated bile-salt micelles (IB-SIF). Dissolution performance of the compounds at various timepoints was determined by centrifugation and analysis of the supernatant concentrations by off-line reverse-phase HPLC analysis.
Test compounds (0.45 mg±0.05 mg) were weighed into a microcentrifuge tube then 1.800 mL of IB-SIF receptor solution—prepared previously by dissolution of 0.250 g SIF powder (Biorelevant.com) in 50 mL of pH 6.5 PBS warmed to 37° C.—was added. A timer was started and the sample tubes were vortexed at the maximum setting for 1 minute. When the timer read 2, 8, 18, 38, 88 and 1,198 min—corresponding to the 4, 10, 20, 40, 90 and 1,200 min timepoints, respectively—the sample tubes were centrifuged for 1 min at 15,800 RCF. Then, at each timepoint, the supernatant (50 μL) was added to diluent {250 μL of 75/25 THF/Water (v/v)} and the compound concentrations were measured by off-line HPLC analysis (Table 7a). To determine the concentration of free drug+drug in micelles, the HPLC samples for the 90 and 1,200 min timepoints were additionally centrifuged for 8 min at 80,000 rpm at 37° C. in an ultracentrifuge (UCF), then the supernatant (50 μL) was added to diluent {250 PL of 75/25 THF/Water (v/v)} and the compound concentrations were measured by off-line HPLC analysis (Table 7b).

Jurkat cells = test: Cell cytotoxicity assay, Jurkat cell viability (assay (r)); assay type: cell-based, human; conditions: 24 hours
Protocol: 1×10^5 Jurkat cells (immortalised human T lymphocytes) are added to the appropriate number of wells of a 96 well plate in 100 μL of media (RPMI supplemented with 10% foetal bovine serum). 1 μL of DMSO control (final concentration 1.0% v/v) or test compound (final concentration 20, 5 or 1 μg/mL) is added to the wells and incubated at 37° C., 5% CO2. After 24 hours, the plate is centrifuged at 1200 rpm for 3 minutes and the supernatant discarded. Cells are then resuspended in 150 μL (final concentration 7.5 μg/mL) of propidium iodide (PI) in PBS and incubated at 37° C., 5% CO2 for 15 minutes. After 15 minutes, cells are analysed by flow cytometry (BD accuri) using the FL3 window. The % viability is calculated as the % of cells that are P negative in the test wells normalised to the DMSO control.

IL-8 release in PBMCs = test: LPS-induced IL-8 release in PBMC cells (assay (b)); assay type: cell-based; conditions: Homo sapiens, LPS-stimulated PBMCs
Excerpt: Peripheral blood mononuclear cells (PBMCs) from healthy subjects are separated from whole blood using a density gradient (Lymphoprep, Axis-Shield Healthcare). […] The supernatant is harvested for determination of IL-8 and TNFα concentrations by sandwich ELISA (Duo-set, R&D systems) and read on the fluorescence microplate reader (Varioskan® Flash, ThermoFisher Scientific).

[2] = tested on: IFN gamma release in PBMCs; test: IFN gamma release in CD3/CD28 stimulated PBMC cells (assay (c)); assay type: cell-based; conditions: Homo sapiens, read-out: IC50 Values in PBMCs IFNγ
Protocol: PBMCs from healthy subjects are separated from whole blood using a density gradient (Lymphoprep, Axis-Shield Healthcare). Cells are added to a 96 well plate pre-coated with a mixture of CD3/CD28 monoclonal antibodies (0.3 μg/mL eBioscience and 3 μg/mL BD Pharmingen respectively). Compound at the desired concentration is then added to the wells and the plate left for 3 days under normal tissue culture conditions. Supernatants are harvested and IL-2 and IFN gamma release determined by Sandwich ELISA (Duo-set, R&D System). The IC50 is determined from the dose response curve.

p38 MAPKα = p38 MAPKα (Homo sapiens (Human), UniProt Q16539); test: p38 MAPKα enzyme inhibition (FRET, Z-LYTE; Method 2); assay type: biochemical
Protocol: (§1) The enzyme inhibitory activities of compounds disclosed herein are determined by FRET using synthetic peptides labelled with both donor and acceptor fluorophores (Z-LYTE, Invitrogen Ltd., Paisley, UK).
The inhibitory activities of test compounds against the p38 MAPKα isoform (MAPK14: Invitrogen) are evaluated indirectly by determining the level of activation/phosphorylation of the down-stream molecule, MAPKAP-K2. The p38 MAPKα protein (80 ng/mL, 2.5 μL) is mixed with the test compound (2.5 μL of either 4 μg/mL, 0.4 μg/mL, 0.04 μg/mL or 0.004 μg/mL) for 2 hr at RT. […] The mixture is incubated for 1 hr at RT. Development reagent (protease, 5 μL) is added for 1 hr prior to detection in a fluorescence microplate reader (Varioskan® Flash, ThermoFisher Scientific).
This method follows the same steps as Method 1 above, but utilises a higher concentration of the p38 MAPKα protein (2.5 μL of 200 ng/mL protein instead of 2.5 μL of 80 ng/mL protein) for mixing with the test compound (tested at either 1 μg/mL, 0.1 μg/mL, 0.01 μg/mL or 0.001 μg/mL).
(§2) In all cases, the site-specific protease cleaves non-phosphorylated peptide only and eliminates the FRET signal. Phosphorylation levels of each reaction are calculated using the ratio of coumarin emission (donor) over fluorescein emission (acceptor), for which high ratios indicate high phosphorylation and low ratios indicate low phosphorylation levels. […]

c-Src = c-Src (Homo sapiens (Human), UniProt P12931); test: c-Src enzyme inhibition (FRET, Z-LYTE); assay type: biochemical
Protocol: as §1
(§3) The inhibitory activities of compounds of the invention against c-Src and Syk enzymes (Invitrogen), are evaluated in a similar fashion to that described hereinabove. The relevant enzyme (3000 ng/mL or 2000 ng/mL respectively, 2.5 μL) is incubated with the test compound (either 1 μg/mL, 0.1 μg/mL, 0.01 μg/mL, or 0.001 μg/mL, 2.5 μL each) for 2 hr at RT. The FRET peptides (8 μM. 2.5 μL), and appropriate ATP solutions (2.5 μL, 800 μM for c-Src, and 60 μM ATP for Syk) are then added to the enzymes/compound mixtures and the mixture incubated for 1 hr. Development reagent (protease, 5 μL) is added for 1 hr prior to detection in a fluorescence microplate reader (Varioskan® Flash, ThermoFisher Scientific).
as §2

Syk = Syk (Homo sapiens (Human), UniProt P43405); test: Syk enzyme inhibition (FRET, Z-LYTE); assay type: biochemical
Protocol: as §1, §3, §2

Chain of p38 MAPKα (Q16539 whole entry): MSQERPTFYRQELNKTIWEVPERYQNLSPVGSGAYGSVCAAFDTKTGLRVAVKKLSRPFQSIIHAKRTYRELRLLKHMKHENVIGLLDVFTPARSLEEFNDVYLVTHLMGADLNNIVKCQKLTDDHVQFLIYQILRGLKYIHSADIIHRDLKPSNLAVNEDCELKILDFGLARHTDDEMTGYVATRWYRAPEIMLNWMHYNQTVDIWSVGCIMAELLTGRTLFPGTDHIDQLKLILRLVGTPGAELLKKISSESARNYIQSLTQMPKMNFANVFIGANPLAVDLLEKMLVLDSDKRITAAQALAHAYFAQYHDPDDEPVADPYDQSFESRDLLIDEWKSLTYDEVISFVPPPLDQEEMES
Chain of c-Src (P12931 whole entry, looked up): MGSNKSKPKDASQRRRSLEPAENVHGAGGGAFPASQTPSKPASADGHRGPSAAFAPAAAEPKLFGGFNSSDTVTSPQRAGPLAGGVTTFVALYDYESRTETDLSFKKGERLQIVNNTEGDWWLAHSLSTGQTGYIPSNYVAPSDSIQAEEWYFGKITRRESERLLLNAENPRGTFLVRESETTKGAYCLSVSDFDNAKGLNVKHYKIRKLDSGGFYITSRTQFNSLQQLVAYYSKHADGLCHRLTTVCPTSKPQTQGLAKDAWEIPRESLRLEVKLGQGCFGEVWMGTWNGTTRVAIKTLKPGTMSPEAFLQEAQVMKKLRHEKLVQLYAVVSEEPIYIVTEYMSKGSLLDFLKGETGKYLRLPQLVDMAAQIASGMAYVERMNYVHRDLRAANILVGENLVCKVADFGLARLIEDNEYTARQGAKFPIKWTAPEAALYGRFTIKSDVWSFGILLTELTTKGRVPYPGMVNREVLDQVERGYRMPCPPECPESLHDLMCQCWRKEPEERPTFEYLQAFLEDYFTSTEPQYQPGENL

Row | Compound | Concentration, IB Timepoint 0 min [1] | Concentration, IB Timepoint 4 min [1] | Concentration, IB Timepoint 10 min [1] | Concentration, IB Timepoint 20 min [1] | Concentration, IB Timepoint 40 min [1] | Concentration, IB Timepoint 90 min [1] | Concentration, IB Timepoint 1,200 min [1] | Additional concentration, UCF Timepoint 90 min [1] | Additional concentration, UCF Timepoint 1,200 min [1] | % Viability at 1 μg/mL (Jurkat cells) | % Viability at 5 μg/mL (Jurkat cells) | % Viability at 20 μg/mL (Jurkat cells) | IC50 (IL-8 release in PBMCs) | IC50 [2] | IC50 (p38 MAPKα) | IC50 (c-Src) | IC50 (Syk)
1 | C#Cc1cc(Nc2nccc(Oc3ccc(NC(=O)Nc4cc(C(C)(C)C)nn4-c4ccc(C)cc4)c4ccccc34)n2)cc(C(=O)NCCOCCOCCOC)c1 [Reference Compound B, 3-((4-((4-(3-(3-(tert-butyl)-1-(p-tolyl)-1H-pyrazol-5-yl)ureido)naphthalen-1-yl)oxy)pyrimidin-2-yl)amino)-5-ethynyl-N-(2-(2-(2-methoxyethoxy)ethoxy)ethyl)benzamide] | 0 ng/mL | 1.1 µg/mL | 0.9 µg/mL | 1.3 µg/mL | 1.0 µg/mL | 0.7 µg/mL | 3.0 µg/mL | 0.7 µg/mL | 2.9 µg/mL | – | – | – | – | – | – | – | –
2 | COc1cc(Nc2nccc(Oc3ccc(NC(=O)Nc4cc(C(C)(C)C)cc(NS(C)(=O)=O)c4OC)c4ccccc34)n2)cc(OCCOCCOCCC(=O)O)c1 [Reference Compound A, 3-(2-(2-(3-((4-((4-(3-(5-(tert-butyl)-2-methoxy-3-(methylsulfonamido)phenyl)ureido)naphthalen-1-yl)oxy)-pyrimidin-2-yl)amino)-5-methoxyphenoxy)ethoxy)ethoxy)propanoic acid] | 0 ng/mL | 39.8 µg/mL | 63.4 µg/mL | 83.5 µg/mL | 96.5 µg/mL | 99.9 µg/mL | 101.0 µg/mL | 87.0 µg/mL | 88.8 µg/mL | 96% | 93% | 48% | – | – | – | – | –
3 | COc1cc(Nc2cc(Oc3ccc(NC(=O)Nc4cc(C(C)(C)C)cc(NS(C)(=O)=O)c4OC)c4ccccc34)ccn2)cc(OCCOCCOCC(=O)O)c1 [Example 3] | 0 ng/mL | 255.7 µg/mL | 255.9 µg/mL | 251.7 µg/mL | 249.2 µg/mL | 253.5 µg/mL | 239.0 µg/mL | 229.4 µg/mL | 169.9 µg/mL | 99% | 99% | 96% | 17.3 nM | 31.8 nM | 23 nM | 18 nM | 12 nM
